≈ marks a conversion by molar mass, not a printed value. Where “and” joins values, the source holds several entries; their conditions need not be identical. Equal entries are not always repeated. Where two headings read alike, the source gives them in different places.
Assays:
[1] = tested on: M. tuberculosis H37Rv PmabAinhA (C-15T); format: cell-based; details: for MIC H37Rv PmabAinhA (C-15T): four weeks
[2] = tested on: M. tuberculosis H37Rv ΔkatG; format: cell-based, Mycobacterium tuberculosis
[3] = tested on: H37Rv; details: cited from earlier work
[4] = biological target: InhA; details: read-out: Ki against InhA; cited from earlier work
[5] = tested on: InhA; details: read-out: InhA IC50; cited from earlier work
[6] = tested on: M. tuberculosis H37Rv; format: cell-based; details: wild-type, INH-sensitive, four weeks

Compound: NNC(=O)c1ccncc1 [INH, isoniazid]
- fold loss in potency versus InhA(C-15T) strain compared to wild-type ([1]; MIC ratio vs wild-type strain): 13 fold
- MIC H37Rv ΔkatG [2]: >200 (>1400) µg/ml and >200 (>1400) µM

Compound: CCc1cc(C(N)=S)ccn1 [ethionamide]
- MIC [3]: 18 µM (≈ 2.99 µg/mL)

Compound: NC(=O)C1=CN([C@@H]2O[C@H](COP(=O)(O)OP(=O)(O)OC[C@H]3O[C@@H](n4cnc5c(N)ncnc54)[C@H](O)[C@@H]3O)[C@@H](O)[C@H]2O)C=C[C@@H]1C(=O)c1ccncc1 [INH-NAD]
- Ki [4]: 5 nM

Compound: CCCCCCCCc1ccc(Oc2ccccc2)c(O)c1 [Sullivan’s n-octyl analog]
- MIC vs. H37Rv ([3]; des-chloro analogs of Sullivan): 6.5 µM (≈ 1.94 µg/mL)
- IC50 [5]: 5 nM

Compound: 5-n-butyltriclosan [Compound 10]
- MIC H37Rv [6]: 9.4 µg/mL
- MIC H37Rv ([6]; value in parentheses): 30 µM
- MIC H37Rv PmabAinhA (C-15T) [1]: 37 µg/mL
- MIC H37Rv PmabAinhA (C-15T) ([1]; value in parentheses): 120 µM
- MIC H37Rv ΔkatG [2]: 19 (60) µg/ml and 19 (60) µM

Reference: PMC3541007 (ChemMedChem, 2009)
